Test results taken from PMC7767178 (International Journal of Molecular Sciences, 2020).

Details: 60 min, 200 μg/mL peptide, 37 °C, inhibition zone against A. veronii ACCC61732
Protocol: Briefly, a final concentration of 200 μg/mL peptide was incubated in SGF and SIF at 37 °C. At different time intervals, an aliquot of 20 μL mixture was taken and the activity of peptides was tested against A. veronii ACCC61732 by the inhibition zone assay. […] in PBS was used as the positive control; SGF and SIF were used as negative controls.

## CC(C)[C@H]1NC(=O)CNC(=O)[C@@H](CC(N)=O)NC(=O)[C@@H](CCCNC(=N)N)NC(=O)[C@@H](Cc2ccc(O)cc2)NC(=O)[C@@H](C(C)C)NC(=O)[C@H](NC(=O)[C@H](NC(=O)[C@@H](CC(N)=O)NC(=O)[C@@H](Cc2c[nH]c3ccccc23)NC(=O)[C@@H](C)NC(=O)[C@@H](Cc2ccccc2)NC(=O)CN)C(C)C)CSSC[C@H](C(=O)N[C@H](Cc2c[nH]cn2)C(=O)N[C@H](CCCNC(=N)N)C(=O)N[C@H](CCCNC(=N)N)C(=O)N[C@H](C)C(=O)N[C@H](CC(N)=O)C(N)=O)NC(=O)[C@@H](C(C)C)NC(=O)[C@@H](CCCNC(=N)N)NC1=O [DN6NH2]
  antibacterial activity after treatment in SGF: higher antibacterial activity than N6NH2 and other analogs
